Paper PMC6272674, “Selected Compounds Structurally Related to Acyclic Sesquiterpenoids and Their Antibacterial and Cytotoxic Activity” (Molecules, 2015)
≈ marks a conversion by molar mass, not a printed value.

Tests used:
MTT viability, HaCaT = assay type: cell-based, human; conditions: human, HaCaT keratinocytes, 1000 µM (IC50 exceeded 1000 µM), read-out: viability ± standard deviation at 1000 µM
Protocol: (§1) Cell lines and in vitro culture conditions: The human promyelocytic leukaemia cell line HL-60 was obtained from the Centre of Molecular and Macromolecular Biology in Łódź, Poland and was cultured in RPMI 1640 medium with 20% heat-inactivated fetal bovine serum (FBS). To reduce spontaneous differentiation, the cells were never allowed to exceed a concentration of 1.0 × 10^6 cells/mL. The human keratinocyte cell line HaCaT was obtained from Cell Lines Service, Germany (CLS) and cultured in DMEM medium with 10% FBS. Human colorectal adenocarcinoma HT29 and normal epithelial IEC-6 cell lines (from ATCC) were cultured in DMEM medium with 10% FBS. The human skin melanoma cell line MEWO (from CLS) was cultured in DMEM:F12 supplemented with 2 mM L-glutamine and 10% FBS. Human fibroblasts from gingiva isolated from original tissue, HFIB-G, (from Provitro) were cultured in Quantum 333 (from Immunique). The media were supplemented with 100 U/mL penicillin and 100 µg/mL streptomycin; all media components were obtained from Life Technologies. The adherent cell lines used in the studies were seeded on microplates before they exceeded 80% of confluence. Cells were cultured at 37 °C in 5% CO2 air atmosphere/95% air atmosphere.
(§2) Cytotoxic activity: The cells (the density for HL-60 was 0.5 × 10^4 cells/100 µL, otherwise it was 1 × 10^4 cells/100 µL) were plated into each well of 96-well microtiter plates and, after their attachment to the plate surface, treated with 10 µL of the indicated concentrations of compounds for 24 h. Viability was determined by MTT assay following the treatment. MTT (3-[4.5-dimethylthiazol-2-yl]-2.5-diphenyltetrazolium bromide; Sigma, St. Louis, MO, USA) solution was added to each well and incubated for another 4 h. The resulting MTT-formazan product was dissolved by the addition of lysis buffer (20% SDS and 50% DMF). The amount of formazan was determined by measuring absorbance at 570 nm with a Synergy 2 microplate reader (BioTek, Winooski, VT, USA) operated by the Gen5 program. The experiments were conducted three times with five replications. The results are expressed as an optical density ratio of the treatment to control. All data are presented as means ± SD.

[1] = system: Enterococcus faecalis ATCC 51299; parameters: method as in doi:10.1002/ffj.3238; conditions: data presented by the authors before; cited from earlier work
[2] = system: Staphylococcus aureus ATCC 43300; parameters: method as in doi:10.1002/ffj.3238; conditions: data presented by the authors before; cited from earlier work
MTT viability, HT29 = assay type: cell-based, human; conditions: human, HT29 colorectal adenocarcinoma cells, 1000 µM (IC50 exceeded 1000 µM), read-out: viability ± standard deviation at 1000 µM
Protocol: as §1, §2

[3] = system: Klebsiella pneumoniae ATCC 700603; parameters: method as in doi:10.1002/ffj.3238; conditions: data presented by the authors before; cited from earlier work
MTT viability, IEC6 = assay type: cell-based; conditions: rat, IEC-6 small intestine epithelial cells, 1000 µM (IC50 exceeded 1000 µM), read-out: viability ± standard deviation at 1000 µM
Protocol: as §1, §2

[4] = system: Promyelocytic Leukaemia HL-60; assay: MTT viability, HL-60; assay type: cell-based, human; conditions: Homo sapiens, HL-60, 24 h, HL-60, MTT, range 10–1000 µM, read-out: half maximal inhibitory concentration (IC50), interpolated
Protocol: as §1, §2

[5] = system: Escherichia coli ATCC 25922; parameters: method as in doi:10.1002/ffj.3238; conditions: data presented by the authors before; cited from earlier work
MTT viability, HFIG = assay type: cell-based, human; conditions: human, HFIG (HFIB-G) gingival fibroblasts, 1000 µM (IC50 exceeded 1000 µM), read-out: viability ± standard deviation at 1000 µM
Protocol: as §1, §2

[6] = system: Enterococcus faecium ATCC 35667; parameters: method as in doi:10.1002/ffj.3238; conditions: data presented by the authors before; cited from earlier work
MTT viability, MEWO = assay type: cell-based, human; conditions: human, MEWO malignant melanoma cells, 1000 µM (IC50 exceeded 1000 µM), read-out: viability ± standard deviation at 1000 µM
Protocol: as §1, §2

[7] = system: Acinetobacter baumannii ATCC 19606; parameters: method as in doi:10.1002/ffj.3238; conditions: data presented by the authors before; cited from earlier work
[8] = system: Escherichia coli ATCC 25922; assay: Micro-dilution broth MIC, Escherichia coli; assay type: cell-based; conditions: ATCC25922, 24 h, 37 °C, read-out: Minimum Inhibitory Concentrations MIC
Protocol: (§3) The standard strains, Gram-positive: Staphylococcus aureus ATCC […], Enterococcus faecalis Van B ATCC 51299 and Enterococcus faecium VA sensitive ATCC 35667, and Gram-negative: Escherichia coli ATCC 25922, Klebsiella pneumoniae ATCC 700603 and Acinetobacter baumannii ATCC 19606, came from a collection of the Environmental Biology Department, Medical University of Łódź. The standard strains were cultivated in Columbia Agar Medium and incubated at 37 °C for 24 h in aerobic conditions.
(§4) The antibacterial activity of the racemates and E/Z-mixtures was investigated using the micro‑dilution broth method. The compounds were diluted in ethanol. This stock solution was mixed with 100 µL of Mueller-Hinton broth to obtain concentrations from 10 µg/mL to 80 µg/mL. The mixtures were then transferred to 96-well microtiter plates. The microbial suspension was standardised to a cell density of 1.5 × 10^8 CFU, which was equal to an optical density of 0.5 on the Mc Farland scale by a bio-Merieux densitometer; one well was filled with broth only to act as a control for strain growth.

Keratinocytes HaCaT = assay: MTT viability, HaCaT; assay type: cell-based, human; conditions: Homo sapiens, 24 h, range 10–1000 µM, read-out: half maximal inhibitory concentration (IC50), interpolated
Protocol: as §1, §2

[9] = system: Klebsiella pneumoniae ATCC 700603; assay: Micro-dilution broth MIC, Klebsiella pneumoniae; assay type: cell-based; conditions: ATCC700603, 24 h, 37 °C, read-out: Minimum Inhibitory Concentrations MIC
Protocol: as §3, §4

[10] = system: Staphylococcus aureus ATCC 43300; assay: Micro-dilution broth MIC, Staphylococcus aureus; assay type: cell-based; conditions: ATCC43300, 24 h, 37 °C, read-out: Minimum Inhibitory Concentrations MIC
Protocol: as §3, §4

[11] = system: Acinetobacter baumannii ATCC 19606; assay: Micro-dilution broth MIC, Acinetobacter baumannii; assay type: cell-based; conditions: ATCC19606, 24 h, 37 °C, read-out: Minimum Inhibitory Concentrations MIC
Protocol: as §3, §4

Fibroblasts HFIG = assay: MTT viability, HFIG; assay type: cell-based, human; conditions: Homo sapiens, Fibroblast, 24 h, range 10–1000 µM, read-out: half maximal inhibitory concentration (IC50), interpolated
Protocol: as §1, §2

[12] = system: Enterococcus faecium ATCC 35667; assay: Micro-dilution broth MIC, Enterococcus faecium; assay type: cell-based; conditions: ATCC35667, 24 h, 37 °C, read-out: Minimum Inhibitory Concentrations MIC
Protocol: as §3, §4

Malignant Melanoma MEWO = assay: MTT viability, MEWO; assay type: cell-based, human; conditions: Homo sapiens, 24 h, range 10–1000 µM, read-out: half maximal inhibitory concentration (IC50), interpolated
Protocol: as §1, §2

[13] = system: Enterococcus faecalis ATCC 51299; assay: Micro-dilution broth MIC, Enterococcus faecalis; assay type: cell-based; conditions: ATCC51299, 24 h, 37 °C, read-out: Minimum Inhibitory Concentrations MIC
Protocol: as §3, §4

Row | SMILES | viability at 24 h, 1000 µM (MTT viability, HaCaT) [%] | Minimum Inhibitory Concentrations MIC [1] [µg/mL] | Minimum Inhibitory Concentrations MIC [2] [µg/mL] | viability at 24 h, 1000 µM (MTT viability, HT29) [%] | Minimum Inhibitory Concentrations MIC [3] [µg/mL] | viability at 24 h, 1000 µM (MTT viability, IEC6) [%] | IC50 [4] [µM] | Minimum Inhibitory Concentrations MIC [5] [µg/mL] | viability at 24 h, 1000 µM (MTT viability, HFIG) [%] | Minimum Inhibitory Concentrations MIC [6] [µg/mL] | viability at 24 h, 1000 µM (MTT viability, MEWO) [%] | Minimum Inhibitory Concentrations MIC [7] [µg/mL] | MIC [8] [µg/mL] | IC50 (Keratinocytes HaCaT) [µM] | MIC [9] [µg/mL] | MIC [10] [µg/mL] | MIC [11] [µg/mL] | IC50 (Fibroblasts HFIG) [µM] | MIC [12] [µg/mL] | IC50 (Malignant Melanoma MEWO) [µM] | further results
1 | C=CC(C)(O)CC(C)CCC=C(C)C (stereo not drawn) [Compound 15] | 90 | 48 | 46 | 104 | 16 | 110 | 750 | 28 | 96 | 38 | 104 | 16 |  |  |  |  |  |  |  |  | 
2 | C=CC(C)(O)C(C)CC(C)CCC=C(C)C (stereo not drawn) [Compound 17] | 95 | 38 | 48 | 108 | 18 | 98 | 750 | 46 | 87 | 38 | 112 | 16 |  |  |  |  |  |  |  |  | 
3 | C=CC(C)(O)CCC=CC(C)CCC=C(C)C (stereo not drawn) [Compound 13] | 87 | 42 | 46 | 99 | 20 | 96 | 400 | 40 | 87 | 38 | 83 | 22 |  |  |  |  |  |  |  |  | 
4 | CC(C)=CCCC(C)/C=C/CCC(C)=CCO (stereo not drawn) [Compound 25, (6E)-3,8,12-Trimethyltrideca-2,6,11-trien-1-ol] |  |  |  | 108 |  | 82 | 167 |  |  |  |  |  | 50 (≈ 212 µM) | 667 | 48 (≈ 203 µM) | 28 (≈ 118 µM) | 44 (≈ 186 µM) | 454 | 34 (≈ 144 µM) | 500 | MIC [13]: 32 µg/mL (≈ 135 µM)
5 | CC(=CCO)CCC=C(C)C(C)CCCC(C)C (stereo not drawn) [Compound 26, 3,7,8,12-Tetramethyltrideca-2,6-dien-1-ol] |  |  |  | 96 |  | 76 | 145 |  |  |  |  |  | 48 (≈ 190 µM) | 620 | 42 (≈ 166 µM) | 32 (≈ 127 µM) | 38 (≈ 151 µM) | 531 | 36 (≈ 143 µM) | 495 | MIC [13]: 30 µg/mL (≈ 119 µM)
